{"source": "ChEMBL document CHEMBL6115010", "about": "“Targeting glioma with heteroaromatic alkaloids: A review of potential therapeutics” (Bioorg Med Chem, 2025)", "key": {"U-87 MG [1]": {"tested_on": "U-87 MG", "experiment": "Antitumor activity against human U-87 MG cells xenografted in BALB/c nude mouse model assessed as reduction in tumor volume at 40 mg/kg, ip administered twice a day for 4 days relative to control", "assay_type": "functional, U-87MG ATCC", "parameters": "scale not given: the % may be the effect or the level left", "settings": "time 4 day"}, "T98G [2]": {"tested_on": "T98G", "experiment": "Antiproliferative activity against human T98G cells assessed as reduction in cell viability incubated for 72 hrs by WST-8 reagent based assay", "assay_type": "functional"}, "T98G [3]": {"tested_on": "T98G", "experiment": "Inhibition of colony formation in human T98G cells assessed as reduction in number of cell clone measured after 14 days by crystal violet staining based microscopic analysis", "assay_type": "functional", "settings": "336 h"}, "T98G [4]": {"tested_on": "T98G", "experiment": "Anticancer activity against human T98G cells assessed as reduction in cell viability", "assay_type": "functional, cell-based"}, "[5]": {"experiment": "Inhibition of colony formation in human U-251MG cells assessed as reduction in number of cell clone measured after 14 days by crystal violet staining based microscopic analysis", "assay_type": "functional", "settings": "336 h"}, "U-87 MG [6]": {"tested_on": "U-87 MG", "experiment": "Antiproliferative activity against human U-87 MG cells assessed as reduction in cell viability incubated for 72 hrs by WST-8 reagent based assay", "assay_type": "functional, U-87MG ATCC"}, "SH-SY5Y": {"tested_on": "SH-SY5Y", "experiment": "Cytotoxicity against human SH-SY5Y cells measured for 48 hrs by SRB assay", "assay_type": "functional, cell-based"}, "[7]": {"experiment": "Antitumor activity against rat C6/ACNUcells implanted in Wistar rat assessed as increase in life span at 250 mg/kg relative to control", "assay_type": "functional, C6/ACNU"}, "C6 [8]": {"tested_on": "C6", "experiment": "Antitumor activity against rat C6 cells implanted in Wistar rat assessed as increase in life span at 250 mg/kg relative to control", "assay_type": "functional"}, "[9]": {"experiment": "Cytotoxicity against rat 9L/ACNU cells assessed as reduction in cell viability incubated for 24 hrs by tryphan-blue dye based assay", "assay_type": "functional"}, "[10]": {"experiment": "Cytotoxicity against human U-87 MG cells harboring EGFR mutation assessed as reduction in cell viability incubated for 72 hrs by resazurin dye based assay", "assay_type": "functional, U-87MG ATCC"}, "CCRF-CEM": {"tested_on": "CCRF-CEM", "experiment": "Cytotoxicity against human CCRF-CEM cells assessed as reduction in cell viability incubated for 72 hrs by resazurin dye based analysis", "assay_type": "functional"}, "ADR5000 cell line": {"tested_on": "ADR5000 cell line", "experiment": "Cytotoxicity against human CEM/ADR5000 cells assessed as reduction in cell viability incubated for 72 hrs by resazurin dye based analysis", "assay_type": "functional", "settings": "ADR5000, 72 h"}, "9L": {"tested_on": "9L", "experiment": "Cytotoxicity against rat 9L cells assessed as reduction in cell viability incubated for 24 hrs by tryphan-blue dye based assay", "assay_type": "functional"}, "[11]": {"experiment": "Cytotoxicity against human GBM cells harboring EGFR mutation assessed as reduction in cell viability incubated for 72 hrs by resazurin dye based assay", "assay_type": "functional"}, "U-87 MG [12]": {"tested_on": "U-87 MG", "experiment": "Antiproliferative activity against human U-87 MG cells by MTT assay", "assay_type": "functional, cell-based, U-87MG ATCC"}, "C6 [13]": {"tested_on": "C6", "experiment": "Antiproliferative activity against rat C6 cells by MTT assay", "assay_type": "functional, cell-based"}, "U-87 MG [14]": {"tested_on": "U-87 MG", "experiment": "Antiproliferative activity against human U-87 MG cells measured for 48 hrs by MTT assay", "assay_type": "functional, cell-based, U-87MG ATCC"}, "U-87 MG [15]": {"tested_on": "U-87 MG", "experiment": "Antitumor activity against human U-87 MG cells xenografted in mouse model assessed as reduction in tumor growth at 60 mg/kg, ip administered once daily for 5 days relative to control", "assay_type": "functional, U-87MG ATCC", "parameters": "scale not given: the % may be the effect or the level left", "settings": "time 5 day"}, "U-251 [16]": {"tested_on": "U-251", "experiment": "Induction of apoptosis in human U-251MG cells assessed as increase in PARP cleavage at 12.5 to 100 uM incubated for 24 hrs by Western blot analysis", "assay_type": "functional", "settings": "dose 12.5-100 µM"}, "[17]": {"target": "T1, Dual specificity tyrosine-phosphorylation-regulated kinase 1A (Homo sapiens, UniProt Q13627)", "experiment": "Inhibition of DYRK1A (unknown origin) incubated for 2 hrs in presence of [gamma-33P]-ATP by radioactivity based assay"}, "U-87 MG [18]": {"tested_on": "U-87 MG", "experiment": "Antiproliferative activity against human U-87 MG cells assessed as reduction in cell viability incubated for 72 hrs by Presto-Blue cell viability assay", "assay_type": "functional, cell-based, U-87MG ATCC"}, "H4": {"tested_on": "H4", "experiment": "Antiproliferative activity against human H4 cells assessed as reduction in cell viability incubated for 72 hrs by Presto-Blue cell viability assay", "assay_type": "functional, cell-based", "settings": "H4, 72 h"}, "U-87 MG [19]": {"tested_on": "U-87 MG", "experiment": "Antitumor activity against human U-87 MG cells xenografted in mouse model assessed as reduction in tumor growth at 15 mg/kg, ip administered once daily for 5 days relative to control", "assay_type": "functional, U-87MG ATCC", "parameters": "scale not given: the % may be the effect or the level left", "settings": "time 5 day"}, "[20]": {"target": "T1, Dual specificity tyrosine-phosphorylation-regulated kinase 1A", "experiment": "Inhibition of DYRK1A (unknown origin) by TR-FRET assay"}, "[21]": {"experiment": "Cytotoxicity against human M059K cells assessed as reduction in cell viability incubated for 72 hrs by MTT assay", "assay_type": "functional, cell-based"}, "M059J": {"tested_on": "M059J", "experiment": "Cytotoxicity against human M059J cells assessed as reduction in cell viability incubated for 72 hrs by MTT assay", "assay_type": "functional, cell-based"}, "U-251 [22]": {"tested_on": "U-251", "experiment": "Cytotoxicity against human U-251MG cells assessed as reduction in cell growth incubated for 72 hrs by MTT assay", "assay_type": "functional, cell-based", "settings": "U-251, 72 h"}, "U-87 MG [23]": {"tested_on": "U-87 MG", "experiment": "Antitumor activity against human U-87 MG cells xenografted in BALB/c nude mouse assessed as reduction in tumor growth at 5 mg/kg, iv administered once daily for 16 days relative to control", "assay_type": "functional, U-87MG ATCC", "parameters": "scale not given: the % may be the effect or the level left", "settings": "time 16 day"}}, "note": "pEC50, pIC50: −log10 of the molar value.", "data": [{"smiles": "COc1ccc(Cc2nccc3cc(OC)c(OC)cc23)cc1OC", "note": "[PAPAVERINE]", "values": [{"measurement": "Activity", "setting": "U-87 MG [1]", "result": 63, "unit": "%"}, {"measurement": "pEC50", "setting": "T98G [2]", "result": 4.38}, {"measurement": "pEC50", "setting": "T98G [3]", "result": 5.35}, {"measurement": "pEC50", "setting": "T98G [4]", "result": 5.51}, {"measurement": "pEC50", "setting": "[5]", "result": 4.96}, {"measurement": "pEC50", "setting": "U-87 MG [6]", "result": 4.38}]}, {"smiles": "OCc1ccc(-c2nccc3c2[nH]c2ccccc23)o1", "note": "[PERLOLYRIN]", "values": [{"measurement": "pIC50", "setting": "SH-SY5Y", "result": 4.62}]}, {"smiles": "COC(=O)[C@H]1[C@H]2C[C@@H]3c4[nH]c5cc(OC)ccc5c4CCN3C[C@H]2C[C@@H](OC(=O)c2cc(OC)c(OC)c(OC)c2)[C@@H]1OC", "note": "[RESERPINE]", "values": [{"measurement": "Activity", "setting": "[7]", "result": 142, "unit": "%"}, {"measurement": "Activity", "setting": "C6 [8]", "result": 143, "unit": "%"}, {"measurement": "pIC50", "setting": "[9]", "result": 5.70}, {"measurement": "pIC50", "setting": "[10]", "result": 5.04}, {"measurement": "pIC50", "setting": "CCRF-CEM", "result": 4.84}, {"measurement": "pIC50", "setting": "ADR5000 cell line", "result": 4.88}, {"measurement": "pIC50", "setting": "9L", "result": 6.00}, {"measurement": "pIC50", "setting": "[11]", "result": 4.06}]}, {"smiles": "CN1c2ccccc2C(=O)N2CCc3c([nH]c4ccccc34)[C@H]21", "values": [{"measurement": "pIC50", "setting": "U-87 MG [12]", "result": 5.43}, {"measurement": "pIC50", "setting": "C6 [13]", "result": 5.37}, {"measurement": "pIC50", "setting": "U-87 MG [14]", "result": 5.28}]}, {"smiles": "Cc1nccc2c1[nH]c1cc(O)ccc12", "values": [{"measurement": "Activity", "setting": "U-87 MG [15]", "result": 38.1, "unit": "%"}, {"measurement": "Activity", "setting": "U-251 [16]", "result": 486, "unit": "%"}, {"measurement": "pIC50", "setting": "[17]", "result": 7.80}, {"measurement": "pIC50", "setting": "U-87 MG [18]", "result": 4.72}, {"measurement": "pIC50", "setting": "H4", "result": 4.96}, {"measurement": "Activity", "setting": "U-87 MG [19]", "result": 28.2, "unit": "%"}, {"measurement": "pIC50", "setting": "[20]", "result": 7.15}]}, {"smiles": "COc1cc2c(cc1O)CCN[C@]21CS[C@@H]2c3c(OC(C)=O)c(C)c4c(c3[C@@H](COC1=O)N1[C@@H]2[C@H]2c3c(cc(C)c(OC)c3O)C[C@@H]([C@@H]1O)N2C)OCO4", "values": [{"measurement": "pIC50", "setting": "[21]", "result": 9.70}, {"measurement": "pIC50", "setting": "M059J", "result": 10.39}]}, {"smiles": "COc1ccc2c3c(c4cc(OC)c(OC)cc4c2c1)CN1CCC[C@H]1C3", "values": [{"measurement": "pEC50", "setting": "T98G [2]", "result": 4.40}, {"measurement": "pIC50", "setting": "U-251 [22]", "result": 5.48}, {"measurement": "pEC50", "setting": "U-87 MG [6]", "result": 4.54}]}, {"smiles": "O=C1c2ccccc2-[n+]2ccc3c([nH]c4ccccc43)c21", "note": "[FASCAPLYSIN]", "values": [{"measurement": "Activity", "setting": "U-87 MG [23]", "result": 54.92, "unit": "%"}]}]}
